Data from BindingDB's records for doi:10.1016/s0960-894x(02)00140-3 (Aventis Pharma, 2002).

Target: Proto-oncogene tyrosine-protein kinase Src (Homo sapiens, UniProt P12931)
Test: ChEBML_202783
Protocol: The compound was evaluated for its binding affinity towards phosphotyrosine binding pocket of Src protein tyrosine kinase SH2 domain

Chain of Proto-oncogene tyrosine-protein kinase Src (P12931 2-536 limits assumed): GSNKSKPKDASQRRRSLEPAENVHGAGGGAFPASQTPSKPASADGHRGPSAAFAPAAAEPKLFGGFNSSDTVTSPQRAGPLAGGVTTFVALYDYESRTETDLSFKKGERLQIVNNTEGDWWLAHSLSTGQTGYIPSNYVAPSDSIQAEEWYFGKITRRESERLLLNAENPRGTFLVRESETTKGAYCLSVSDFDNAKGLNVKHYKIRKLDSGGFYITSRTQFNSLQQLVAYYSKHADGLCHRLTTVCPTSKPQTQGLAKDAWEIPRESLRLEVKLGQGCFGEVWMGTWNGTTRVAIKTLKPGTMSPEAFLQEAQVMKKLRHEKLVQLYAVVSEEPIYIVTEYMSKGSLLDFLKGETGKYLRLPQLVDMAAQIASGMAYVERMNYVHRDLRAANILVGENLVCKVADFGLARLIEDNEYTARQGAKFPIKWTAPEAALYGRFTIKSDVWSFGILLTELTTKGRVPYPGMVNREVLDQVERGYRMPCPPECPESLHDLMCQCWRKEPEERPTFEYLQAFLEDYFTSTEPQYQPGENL

O=P(O)(O)C(O)c1cccc2ccccc12 (stereo unspecified) [[hydroxy(naphthalen-1-yl)methyl]phosphonic acid]
IC50: > 5 mM
